# Data taken from patent US4575504A, “Thienothiazole derivatives” (Dr. Karl Thomae GmbH, priority 1982, dated 1986).
# Where a name gives a salt, the structure may show the parent alone.
# Assays:
# [1] = Acute toxicity in mice after oral or intravenous administration; settings: mouse, in vivo, observation period 14 days
# Protocol: The acute toxicity was determined in mice after oral or intravenous administration (observation period: 14 days): […]
# intact anesthetized rat [2] = assay: Effect on blood pressure and heart rate in the intact anesthetized rat after intravenous injection; format: in vivo; settings: 3 mg/kg i.v.
# Protocol: 1. Effect on blood pressure and heart rate Method: Changes in circulation after intravenous injection of the test substance were recorded in the intact anesthetized rat. Male rats weighing 200 g were anesthetized with pentobarbital (50 mg/kg i.p.). The animals breathed spontaneously through a tracheal cannula secured in position. The blood pressure was measured at an A. carotis using an electromechanical pressure transducer; the pulse wave triggered a tachograph which recorded the heart rate continuously. Both parameters were recorded on the polygraph. The test substance was injected into a V. jugularis through a catheter. The test substances, when administered at a dosage of 3 mg/kg i.v., produced a brief initial increase in blood pressure followed by a longer-lasting reduction in pressure.
# [3] = system: presynaptic α-adrenoceptors; assay: Effect on presynaptic α-adrenoceptors: inhibition of electrically triggered tachycardia in the spinal rat; format: in vivo; settings: dosage which inhibits electrically induced tachycardia by 50%, i.v.
# Source text: 2. Effect on presynaptic α-adrenoceptors: Inhibition of electrically triggered tachycardia Method: At the adrenergic nerve ending there is an autoregulating system for the relase of noradrenaline. The stimulation of presynaptic α-adrenoreceptors has an inhibiting effect on the release of noradrenaline and thus restricts adrenergic neurotransmission. Accordingly, if these "feedback receptors" are stimulated, the effect of a given adrenergic stimulation on the responding organ can be attenuated. In the electrically stimulated spinal rat, the tachycardia induced electrically in the heart is attenuated by substances with a presynaptic α-mimetic activity. Description of the test: Male rats weighing from 350 to 400 g were anesthetized with pentobarbital (50 mg/kg i.p.), vagotomized, treated with atropine (1 mg/kg s.c.) and fitted with a tracheal cannula. After enucleation of one eye, the orbits were pierced, the brain was destroyed, and a metal rod was pushed through the vertebral canal. The animals were artificially ventilated and pre-treated with gallamine (4 mg/kg i.v.). The metal rod used was 2.5 mm in diameter and was insulated (stove-enamelled). […] The blood pressure was measured at an A. carotis by means of an electromechanical pressure transducer. The pulse wave triggered a tachograph which continuously recorded the heart rate. Both signals were recorded on a multi-channel recorder.
# [4] = system: postsynaptic α-adrenoceptors; assay: Effect on postsynaptic α-adrenoceptors: increase in blood pressure in the spinal rat; format: in vivo; settings: dosage which increased arterial blood pressure by 30 mmHg, i.v.
# Protocol: 3. Effect on postsynaptic α-adrenoceptors: Increase in blood pressure in the spinal rat Method: The increase in blood pressure occurring after the stimulation of postsynaptic α-adrenoreceptors is measured in the spinal rat. Description of test: Male rats weighing from 200 to 250 g were anesthetized (1.2 g/kg of urethane i.p., 1 mg/kg of atropine s.c.). Then the central canal of the spinal cord was opened up. The spinal cord was severed at C1, and the medulla oblongata and the brain were destroyed with a metal probe. The animals were artificially ventilated; a polyethylene catheter was secured in a jugular vein, and the blood pressure was recorded from an A. carotis by means of a Statham element on a Grass polygraph. The dosage (D30) which increased the arterial blood pressure by 30 mmHg was determined.
# intact anesthetized rat [5] = assay: Effect on blood pressure and heart rate in the intact anesthetized rat after intravenous injection; format: in vivo; settings: 1.5 mg/kg i.v.
smiles,measurement,setting,value
"CCN1CCc2sc3nc(N)sc3c2CC1.Cl.Cl [A, 7-ethyl-2-amino-6,7,8,9-tetrahydro-5H-thiazolo[4',5':5,4]thieno[2,3-d]azepine dihydrochloride]",LD50 at 336 h,[1]; intravenous,34 mg/kg
same,LD50 at 336 h,[1]; oral,320 mg/kg
same,"Blood pressure, depressor phase (maximum value)",intact anesthetized rat [2],-18 mm Hg
same,"Blood pressure, pressor phase (maximum value)",intact anesthetized rat [2],+52 mm Hg
same,Lowering of heart rate (maximum value),intact anesthetized rat [2],-90 beats/minute
same,"Inhibition of electrically induced tachycardia, D50",[3],290 μg/kg i.v.
same,"Blood pressure-increasing activity, D30",[4],145 μg/kg i.v.
"Nc1nc2sc3c(c2s1)CCN(Cc1ccccc1)CC3 [B, 2-amino-7-benzyl-6,7,8,9-tetrahydro-5H-thiazolo[4',5':5,4]thieno[2,3d]azepine]","Blood pressure, depressor phase (maximum value)",intact anesthetized rat [2],-25 mm Hg
same,Lowering of heart rate (maximum value),intact anesthetized rat [2],-95 beats/minute
"C=CCN1CCc2sc3nc(N)sc3c2CC1.Cl.Cl [C, 7-allyl-2-amino-6,7,8,9-tetrahydro-5H-thiazolo[4',5':5,4]thieno[2,3-d]azepine dihydrochloride]","Blood pressure, depressor phase (maximum value)",intact anesthetized rat [2],-15 mm Hg
same,"Blood pressure, pressor phase (maximum value)",intact anesthetized rat [2],+17 mm Hg
same,Lowering of heart rate (maximum value),intact anesthetized rat [2],-150 beats/minute
"CC(C)N1CCc2sc3nc(N)sc3c2CC1.Cl.Cl [Compound D, 2-amino-6,7,8,9-tetrahydro-7-isopropyl-5H-thiazolo[4',5':5,4]thieno[2,3-d]azepine dihydrochloride]","Blood pressure, depressor phase (maximum value)",intact anesthetized rat [2],-20 mm Hg
same,"Blood pressure, pressor phase (maximum value)",intact anesthetized rat [2],+23 mm Hg
same,Lowering of heart rate (maximum value),intact anesthetized rat [2],-78 beats/minute
"CCN1CCc2c(sc3nc(N)sc23)C1 [E, 6-ethyl-2-amino-5,6,7,8-tetrahydro-thiazolo[4',5':5,4]thieno[2,3c]pyridine dihydrochloride]","Blood pressure, depressor phase (maximum value)",intact anesthetized rat [2],-29 mm Hg
same,"Blood pressure, pressor phase (maximum value)",intact anesthetized rat [2],+30 mm Hg
same,Lowering of heart rate (maximum value),intact anesthetized rat [2],-108 beats/minute
"CCCN1CCc2c(sc3nc(N)sc23)C1.Cl.Cl [F, 2-amino-5,6,7,8-tetrahydro-6-propyl-thiazolo[4',5':5,4]thieno[2,3-c]pyridine dihydrochloride]",LD50 at 336 h,[1]; oral,> 300 mg/kg
same,"Blood pressure, depressor phase (maximum value)",intact anesthetized rat [2],-12 mm Hg
same,"Blood pressure, pressor phase (maximum value)",intact anesthetized rat [2],+16 mm Hg
same,Lowering of heart rate (maximum value),intact anesthetized rat [2],-65 beats/minute
"CN1CCc2c(sc3nc(N)sc23)C1.Cl.Cl [G, 2-amino-5,6,7,8-tetrahydro-6-methyl-thiazolo[4',5':5,4]thieno[2,3-c]pyridine dihydrochloride]","Blood pressure, depressor phase (maximum value)",intact anesthetized rat [2],-30 mm Hg
same,"Blood pressure, pressor phase (maximum value)",intact anesthetized rat [2],+46 mm Hg
same,Lowering of heart rate (maximum value),intact anesthetized rat [2],-95 beats/minute
"Cl.Cl.Nc1nc2sc3c(c2s1)CCNCC3 [H, 2-Amino-6,7,8,9-tetrahydro-5H-thiazolo[4',5':5,4]thieno[2,3-d]azepine dihydrochloride]","Blood pressure-increasing activity, D30",[4],0.36 mg/kg i.v.
same,"Blood pressure, depressor phase (maximum value)",intact anesthetized rat [5],-34 mm Hg
same,"Blood pressure, pressor phase (maximum value)",intact anesthetized rat [5],+38 mm Hg
same,Lowering of heart rate (maximum value),intact anesthetized rat [5],-100 beats/minute
